Reference: US10597388B2, “Pyridazinone herbicides” (FMC CORPORATION, priority 2014, dated 2020)

Legend:
Type in all cases: in vivo
kochia (Kochia scoparia) = experiment: Test C greenhouse herbicide test, postemergence
Method in brief: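 Test chemicals were applied postemergence to greenhouse plants at the 1- to 4-leaf stage (2–18 cm tall) growing in peat/vermiculite medium. After 13–15 d, injury was rated visually against untreated controls on a 0–100 scale (0 = no effect, 100 = complete control).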

soybean (Glycine max) = experiment: Test C greenhouse herbicide test, pre- and postemergence
Method in brief: (§1)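 Greenhouse pots; pre-em on seeded loam:sand blend, post-em on 2–18 cm plants (1–4 leaf) in sphagnum peat/vermiculite medium. Formulation: non-phytotoxic solvent + surfactant. Read-out: visual % control (0–100) vs controls at 13–15 d.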

corn (Zea mays) = experiment: as above
Method in brief: as §1

[1] = tested on: wheat (winter wheat, Triticum aestivum); experiment: as above
Method in brief: as §1

[2] = tested on: blackgrass (Alopecurus myosuroides); experiment: as above
Method in brief: as §1

[3] = tested on: oilseed rape (Brassica napus); experiment: as above
Method in brief: as §1

[4] = tested on: morningglory (Ipomoea coccinea); experiment: as above
Method in brief: as §1

[5] = tested on: nutsedge, yellow (yellow nutsedge, Cyperus esculentus); experiment: as above
Method in brief: as §1

[6] = tested on: pigweed (Amaranthus retroflexus); experiment: as above
Method in brief: as §1

[7] = tested on: foxtail, giant (giant foxtail, Setaria faberii); experiment: as above
Method in brief: as §1

[8] = tested on: waterhemp (common waterhemp, Amaranthus rudis); experiment: as above
Method in brief: as §1

[9] = tested on: ryegrass, Italian (Italian ryegrass, Lolium multiflorum); experiment: as above
Method in brief: as §1

[10] = tested on: johnsongrass (Sorghum halepense); experiment: as above
Method in brief: as §1

[11] = tested on: ragweed (common ragweed, Ambrosia elatior); experiment: as above
Method in brief: as §1

[12] = tested on: crabgrass, large (large crabgrass, Digitaria sanguinalis); experiment: as above
Method in brief: as §1

[13] = tested on: lambsquarters (Chenopodium album); experiment: as above
Method in brief: as §1

[14] = Postemergence, 31 g ai/ha, 0 to 100 scale (0 no effect, 100 complete control)
[15] = Postemergence, 125 g ai/ha, scale 0 to 100, 0 is no effect, 100 is complete control
[16] = Postemergence, 250 g ai/ha, scale 0 to 100, 0 no effect, 100 complete control, 13 to 15 d
[17] = postemergence, 62 g ai/ha, scale 0 to 100, 0 no effect, 100 complete control
[18] = Preemergence, 31 g ai/ha, scale 0 to 100, 0 is no effect, 100 is complete control
[19] = Preemergence, 62 g ai/ha, scale 0 to 100, 0 is no effect, 100 is complete control
[20] = Preemergence, 125 g ai/ha, scale 0 to 100, 0 is no effect, 100 is complete control
[21] = Preemergence, 250 g ai/ha, scale 0 to 100 (0 no effect, 100 complete control)

Structure (SMILES): Cc1ccc2ccc(C)c(-c3c(O)c(C)nn(C)c3=O)c2c1 [Compound 60]
- Kochia plant response rating (kochia (Kochia scoparia); [14]): 90
- Plant response rating, Kochia (kochia (Kochia scoparia); [15]): 100
- Plant response rating, Kochia (kochia (Kochia scoparia); [16]): 100
- Kochia plant response rating (kochia (Kochia scoparia); [17]): 90
- Soybean plant response rating (soybean (Glycine max); [14]): 15
- Plant response rating, Soybean (soybean (Glycine max); [15]): 40
- Plant response rating, Soybean (soybean (Glycine max); [16]): 50
- Plant response rating, Soybean (soybean (Glycine max); [18]): 0
- Plant response rating, Soybean (soybean (Glycine max); [19]): 45
- Plant response rating, Soybean (soybean (Glycine max); [20]): 65
- Soybean plant response rating (soybean (Glycine max); [21]): 75
- Soybean plant response rating (soybean (Glycine max); [17]): 20
- Corn plant response rating (corn (Zea mays); [14]): 10
- Plant response rating, Corn (corn (Zea mays); [15]): 30
- Plant response rating, Corn (corn (Zea mays); [16]): 35
- Plant response rating, Corn (corn (Zea mays); [18]): 0
- Plant response rating, Corn (corn (Zea mays); [19]): 10
- Plant response rating, Corn (corn (Zea mays); [20]): 30
- Corn plant response rating (corn (Zea mays); [21]): 45
- Corn plant response rating (corn (Zea mays); [17]): 25
- Wheat plant response rating [1, 14]: 5
- Plant response rating, Wheat [1, 15]: 30
- Plant response rating, Wheat [1, 16]: 15
- Plant response rating, Wheat [1, 18]: 10
- Plant response rating, Wheat [1, 19]: 40
- Plant response rating, Wheat [1, 20]: 45
- Wheat plant response rating [1, 21]: 70
- Wheat plant response rating [1, 17]: 5
- Blackgrass plant response rating [2, 14]: 50
- Plant response rating, Blackgrass [2, 15]: 85
- Plant response rating, Blackgrass [2, 16]: 90
- Plant response rating, Blackgrass [2, 18]: 90
- Plant response rating, Blackgrass [2, 19]: 90
- Plant response rating, Blackgrass [2, 20]: 90
- Blackgrass plant response rating [2, 21]: 90
- Blackgrass plant response rating [2, 17]: 60
- Oilseed Rape plant response rating [3, 14]: 5
- Plant response rating, Oilseed Rape [3, 15]: 85
- Plant response rating, Oilseed Rape [3, 16]: 80
- Plant response rating, Oilseed Rape [3, 18]: 30
- Plant response rating, Oilseed Rape [3, 19]: 85
- Plant response rating, Oilseed Rape [3, 20]: 90
- Oilseed Rape plant response rating [3, 21]: 90
- Oilseed Rape plant response rating [3, 17]: 5
- Morningglory plant response rating [4, 14]: 90
- Plant response rating, Morningglory [4, 15]: 100
- Plant response rating, Morningglory [4, 16]: 100
- Plant response rating, Morningglory [4, 18]: 85
- Plant response rating, Morningglory [4, 19]: 98
- Plant response rating, Morningglory [4, 20]: 98
- Morningglory plant response rating [4, 21]: 100
- Morningglory plant response rating [4, 17]: 98
- Nutsedge, Yellow plant response rating [5, 14]: 85
- Plant response rating, Nutsedge, Yellow [5, 15]: 90
- Plant response rating, Nutsedge, Yellow [5, 16]: 95
- Plant response rating, Nutsedge, Yellow [5, 18]: 45
- Plant response rating, Nutsedge, Yellow [5, 19]: 45
- Plant response rating, Nutsedge, Yellow [5, 20]: 85
- Nutsedge, Yellow plant response rating [5, 21]: 85
- Nutsedge, Yellow plant response rating [5, 17]: 85
- Pigweed plant response rating [6, 14]: 85
- Plant response rating, Pigweed [6, 15]: 95
- Plant response rating, Pigweed [6, 16]: 98
- Plant response rating, Pigweed [6, 18]: 100
- Plant response rating, Pigweed [6, 19]: 100
- Plant response rating, Pigweed [6, 20]: 100
- Pigweed plant response rating [6, 21]: 100
- Pigweed plant response rating [6, 17]: 85
- Foxtail, Giant plant response rating [7, 14]: 45
- Plant response rating, Foxtail, Giant [7, 15]: 70
- Plant response rating, Foxtail, Giant [7, 16]: 90
- Plant response rating, Foxtail, Giant [7, 18]: 75
- Plant response rating, Foxtail, Giant [7, 19]: 85
- Plant response rating, Foxtail, Giant [7, 20]: 100
- Foxtail, Giant plant response rating [7, 21]: 100
- Foxtail, Giant plant response rating [7, 17]: 60
- Waterhemp plant response rating [8, 14]: 65
- Plant response rating, Waterhemp [8, 15]: 98
- Plant response rating, Waterhemp [8, 16]: 98
- Plant response rating, Waterhemp [8, 18]: 100
- Plant response rating, Waterhemp [8, 19]: 100
- Plant response rating, Waterhemp [8, 20]: 100
- Waterhemp plant response rating [8, 21]: 100
- Waterhemp plant response rating [8, 17]: 90
- Ryegrass, Italian plant response rating [9, 14]: 90
- Plant response rating, Ryegrass, Italian [9, 15]: 95
- Plant response rating, Ryegrass, Italian [9, 16]: 95
- Plant response rating, Ryegrass, Italian [9, 18]: 90
- Plant response rating, Ryegrass, Italian [9, 19]: 95
- Plant response rating, Ryegrass, Italian [9, 20]: 95
- Ryegrass, Italian plant response rating [9, 21]: 95
- Ryegrass, Italian plant response rating [9, 17]: 90
- Johnsongrass plant response rating [10, 14]: 5
- Plant response rating, Johnsongrass [10, 15]: 55
- Plant response rating, Johnsongrass [10, 16]: 45
- Plant response rating, Johnsongrass [10, 18]: 5
- Plant response rating, Johnsongrass [10, 19]: 20
- Plant response rating, Johnsongrass [10, 20]: 40
- Johnsongrass plant response rating [10, 21]: 60
- Johnsongrass plant response rating [10, 17]: 35
- Ragweed plant response rating [11, 14]: 85
- Plant response rating, Ragweed [11, 15]: 98
- Plant response rating, Ragweed [11, 16]: 100
- Plant response rating, Ragweed [11, 18]: 80
- Plant response rating, Ragweed [11, 19]: 90
- Plant response rating, Ragweed [11, 20]: 95
- Ragweed plant response rating [11, 21]: 95
- Ragweed plant response rating [11, 17]: 90
- Crabgrass, Large plant response rating [12, 14]: 15
- Plant response rating, Crabgrass, Large [12, 15]: 50
- Plant response rating, Crabgrass, Large [12, 16]: 65
- Plant response rating, Crabgrass, Large [12, 18]: 20
- Plant response rating, Crabgrass, Large [12, 19]: 75
- Plant response rating, Crabgrass, Large [12, 20]: 85
- Crabgrass, Large plant response rating [12, 21]: 95
- Crabgrass, Large plant response rating [12, 17]: 35
- Lambsquarters plant response rating [13, 14]: 85
- Plant response rating, Lambsquarters [13, 15]: 95
- Plant response rating, Lambsquarters [13, 16]: 100
- Plant response rating, Lambsquarters [13, 18]: 80
- Plant response rating, Lambsquarters [13, 19]: 85
- Plant response rating, Lambsquarters [13, 20]: 95
- Lambsquarters plant response rating [13, 21]: 90
- Lambsquarters plant response rating [13, 17]: 90
